Here are results for five compounds from ChEMBL document CHEMBL4680099, “Discovery of Leucyladenylate Sulfamates as Novel Leucyl-tRNA Synthetase (LRS)-Targeted Mammalian Target of Rapamycin Complex 1 (mTORC1) Inhibitors” (J Med Chem, 2016).

The target of assay [1] is T1, Leucine--tRNA ligase, cytoplasmic (Homo sapiens, UniProt Q9P2J5). The assay is described as follows: Inhibition of catalytic activity of LRS (unknown origin) by aminoleucylation assay.
Target sequence in this assay (Q9P2J5 whole entry): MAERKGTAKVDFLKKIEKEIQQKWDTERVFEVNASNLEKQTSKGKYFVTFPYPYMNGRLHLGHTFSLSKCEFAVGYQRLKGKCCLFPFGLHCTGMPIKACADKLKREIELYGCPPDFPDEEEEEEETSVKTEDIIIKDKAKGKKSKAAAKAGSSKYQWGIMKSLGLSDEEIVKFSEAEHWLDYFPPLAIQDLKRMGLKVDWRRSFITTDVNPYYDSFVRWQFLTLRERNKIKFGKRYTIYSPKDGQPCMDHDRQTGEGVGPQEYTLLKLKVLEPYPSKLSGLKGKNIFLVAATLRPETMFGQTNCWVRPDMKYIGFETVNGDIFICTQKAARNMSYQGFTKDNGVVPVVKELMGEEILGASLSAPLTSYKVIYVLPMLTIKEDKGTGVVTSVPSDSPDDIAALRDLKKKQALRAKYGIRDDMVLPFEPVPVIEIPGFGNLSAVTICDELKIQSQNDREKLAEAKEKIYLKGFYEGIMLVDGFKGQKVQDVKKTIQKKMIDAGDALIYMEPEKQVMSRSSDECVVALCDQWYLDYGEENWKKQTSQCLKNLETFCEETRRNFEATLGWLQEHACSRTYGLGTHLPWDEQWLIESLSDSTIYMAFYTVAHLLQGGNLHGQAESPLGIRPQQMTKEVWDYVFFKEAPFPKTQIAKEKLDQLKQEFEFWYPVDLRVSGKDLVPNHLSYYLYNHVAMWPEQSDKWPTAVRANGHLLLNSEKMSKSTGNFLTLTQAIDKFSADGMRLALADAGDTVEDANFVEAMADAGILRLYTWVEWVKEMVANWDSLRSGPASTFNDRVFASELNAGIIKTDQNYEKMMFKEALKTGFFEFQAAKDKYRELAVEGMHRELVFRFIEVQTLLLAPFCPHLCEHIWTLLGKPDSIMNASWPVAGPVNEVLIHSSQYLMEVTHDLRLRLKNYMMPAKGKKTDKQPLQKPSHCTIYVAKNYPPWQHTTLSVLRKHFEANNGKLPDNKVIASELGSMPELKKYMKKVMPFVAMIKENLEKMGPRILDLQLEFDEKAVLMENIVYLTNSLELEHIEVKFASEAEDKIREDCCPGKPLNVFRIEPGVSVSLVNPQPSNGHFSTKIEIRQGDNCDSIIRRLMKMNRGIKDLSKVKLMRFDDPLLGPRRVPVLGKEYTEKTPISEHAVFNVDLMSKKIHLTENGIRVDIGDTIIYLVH
For assay [2], the target named is T1, Leucine--tRNA ligase, cytoplasmic. In words: Inhibition of catalytic activity of LRS in HEK293 cells assessed as reduction in mTORC1 activation by measuring leucine-induced S6K phosphorylation at 12.5 to 200 uM by immunoblotting analysis. Format: cell-based. The note with it: dose 12.5-200 µM. For orientation: Immunoblotting shows a protein as a band on a membrane.
Target sequence in this assay (Q9P2J5 whole entry, looked up): as the sequence (Q9P2J5 whole entry) above

Assay [3] concerns the target T2, mTORC1 (Homo sapiens) (UniProt P42345+Q8N122+Q9BVC4). The assay is described as follows: Inhibition of flag-tagged mTORC1 (unknown origin) at 200 uM. Format: protein-complex assay.
Another assay relates to A549. In words: Cytotoxicity in human A549 cells by sulforhodamine B colorimetric assay. The class given is functional, cell-based. (In general: In SRB staining, fixed cells bind dye roughly in proportion to their protein.)
The test system of a further assay is HCT-116. The assay is described as follows: Cytotoxicity in human HCT-116 cells by sulforhodamine B colorimetric assay. The class given is functional, cell-based.
The subject of a further assay is K562. In words: Cytotoxicity in human K562 cells by sulforhodamine B colorimetric assay. Format: functional, cell-based.
A further assay deals with MDA-MB-231. In words: Cytotoxicity in human MDA-MB-231 cells by sulforhodamine B colorimetric assay. Format: functional, cell-based.
Another assay relates to SK-HEP1. The assay is described as follows: Cytotoxicity in human SK-HEP1 cells by sulforhodamine B colorimetric assay. The class given is functional, cell-based.
Another assay relates to SNU-638. The assay is described as follows: Cytotoxicity in human SNU-638 cells by sulforhodamine B colorimetric assay. The class given is functional, cell-based.
A further assay deals with MRC5. The assay is described as follows: Cytotoxicity in human MRC5 cells by sulforhodamine B colorimetric assay. The class given is cell-based.
The target of assay [4] is T2, mTORC1 (Homo sapiens). The note with it: HEK293, dose 100.0 nM.
Description: Inhibition of mTORC1 activation in HEK293 cells assessed as reduction leucine-induced S6K phosphorylation at 100 nM by immunoblotting analysis

Activity calls are given as the source filed them. The rule behind the calls is not given here. Where only a bound is given, the exact number is not on record here.

T2 sequence (Q8N122 whole entry, looked up, other chains not shown): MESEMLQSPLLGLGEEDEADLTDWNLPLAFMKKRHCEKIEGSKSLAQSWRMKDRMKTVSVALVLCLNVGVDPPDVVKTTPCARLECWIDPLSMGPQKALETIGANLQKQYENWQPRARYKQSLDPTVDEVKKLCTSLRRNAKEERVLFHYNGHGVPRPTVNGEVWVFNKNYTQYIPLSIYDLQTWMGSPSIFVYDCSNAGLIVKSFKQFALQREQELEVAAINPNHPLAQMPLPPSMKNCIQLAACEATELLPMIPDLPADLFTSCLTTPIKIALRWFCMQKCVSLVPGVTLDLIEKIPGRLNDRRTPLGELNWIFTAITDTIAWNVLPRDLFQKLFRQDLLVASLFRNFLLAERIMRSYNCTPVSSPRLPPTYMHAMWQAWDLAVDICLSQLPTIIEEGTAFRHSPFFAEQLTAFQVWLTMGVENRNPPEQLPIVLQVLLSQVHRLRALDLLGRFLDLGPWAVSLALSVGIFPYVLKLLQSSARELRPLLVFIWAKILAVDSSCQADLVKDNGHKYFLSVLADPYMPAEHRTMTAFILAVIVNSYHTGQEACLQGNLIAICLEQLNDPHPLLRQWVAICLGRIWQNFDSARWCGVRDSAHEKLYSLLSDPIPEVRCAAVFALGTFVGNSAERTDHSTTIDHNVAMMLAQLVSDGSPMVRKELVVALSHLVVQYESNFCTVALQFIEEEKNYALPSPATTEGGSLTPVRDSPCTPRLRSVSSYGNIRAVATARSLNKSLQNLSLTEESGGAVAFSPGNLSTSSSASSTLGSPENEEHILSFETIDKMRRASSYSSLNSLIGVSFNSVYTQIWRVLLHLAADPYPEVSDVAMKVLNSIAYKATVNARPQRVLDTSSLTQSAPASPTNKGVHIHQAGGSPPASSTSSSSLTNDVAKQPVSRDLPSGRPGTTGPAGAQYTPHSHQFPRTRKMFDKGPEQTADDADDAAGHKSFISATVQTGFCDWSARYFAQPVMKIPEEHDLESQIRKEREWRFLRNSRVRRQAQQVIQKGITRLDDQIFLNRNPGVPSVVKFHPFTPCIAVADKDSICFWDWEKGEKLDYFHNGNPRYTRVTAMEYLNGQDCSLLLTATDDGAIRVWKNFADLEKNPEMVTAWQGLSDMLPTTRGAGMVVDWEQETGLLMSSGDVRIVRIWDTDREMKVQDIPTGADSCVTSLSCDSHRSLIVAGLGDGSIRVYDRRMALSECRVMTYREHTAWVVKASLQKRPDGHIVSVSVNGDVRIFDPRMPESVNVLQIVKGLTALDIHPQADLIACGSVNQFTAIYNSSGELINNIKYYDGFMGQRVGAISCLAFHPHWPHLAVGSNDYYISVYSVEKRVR
T2 sequence (Q9BVC4 whole entry, looked up, other chains not shown): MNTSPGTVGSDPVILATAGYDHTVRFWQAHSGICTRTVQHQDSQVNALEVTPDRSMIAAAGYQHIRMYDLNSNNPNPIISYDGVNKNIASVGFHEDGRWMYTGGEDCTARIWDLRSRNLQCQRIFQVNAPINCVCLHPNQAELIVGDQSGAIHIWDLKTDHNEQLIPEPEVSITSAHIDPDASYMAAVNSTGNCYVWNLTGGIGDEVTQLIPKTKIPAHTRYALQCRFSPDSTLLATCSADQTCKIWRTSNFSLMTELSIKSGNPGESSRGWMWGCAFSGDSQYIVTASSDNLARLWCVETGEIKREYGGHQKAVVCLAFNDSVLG

Broadly, the IC50 is the concentration needed to halve the response being measured. Lower therefore signals greater potency in that assay. In the case of `CC(C)[C@@H](O)[C@H](O)C(=O)NS(=O)(=O)OC[C@H]1O[C@@H](n2cnc3c(N)ncnc32)[C@H](O)[C@@H]1O`, the 50% inhibitory concentration (IC50) in assay [1] turned out to be 0.07 µM; in the assay on A549, 1.64 µM; in the assay with HCT-116, 1.44 µM; in the assay with K562, 2.22 µM; with MDA-MB-231, 7.01 µM; in the assay on SK-HEP1, 6.81 µM. Besides, the values for the 50% inhibitory concentration (IC50) in the assay with SNU-638 and with MRC5 were 8.98 µM and > 50 µM, respectively. Further, in [2], the inhibition result was “Dose-dependent effect”. At mTORC1 (Homo sapiens) [3], the inhibition result is “inactive”.

`CO[C@H]1C[C@@H]2CC[C@@H](C)[C@@](O)(O2)C(=O)C(=O)N2CCCC[C@H]2C(=O)O[C@H]([C@H](C)C[C@@H]2CC[C@@H](O)[C@H](OC)C2)CC(=O)[C@H](C)/C=C(\C)[C@@H](O)[C@@H](OC)C(=O)[C@H](C)C[C@H](C)/C=C/C=C/C=C/1C`: the inhibition entry at mTORC1 (Homo sapiens) [4] was “Active”.

For `CC(C)C[C@H](O)C(=O)NS(=O)(=O)OC[C@H]1O[C@@H](n2cnc3c(N)nc(I)nc32)[C@H](O)[C@@H]1O`, the half-maximal inhibitory concentration (IC50) was determined as 0.337 µM in assay [1]; 1.75 µM in the assay with A549; 0.54 µM in the assay with HCT-116; 1.06 µM in the assay on K562; 12.6 µM with MDA-MB-231; 5.63 µM in the assay on SK-HEP1. Further, the IC50 is 5.7 µM in the assay on SNU-638 and > 50 µM in the assay with MRC5. Further, in assay [2], the inhibition entry was “Dose-dependent effect”. Also, the inhibition result on mTORC1 (Homo sapiens) [3] is “inactive”.

Take `CC(C)C[C@H](N)C(=O)NS(=O)(=O)OC[C@H]1O[C@@H](n2cnc3c(N)ncnc32)[C@H](O)[C@@H]1O` [LEUSA]: the IC50 in assay [1] was determined as 0.0223 µM; in the assay on A549 it was 0.59 µM; in the assay on HCT-116, 0.24 µM; in the assay with K562 it was 0.4 µM; with MDA-MB-231, 0.73 µM; with SK-HEP1, 0.54 µM. The results for the IC50 in the assay on SNU-638 and in the assay with MRC5 were 0.84 µM and 5.9 µM, respectively. In addition, the inhibition entry in assay [2] was “inactive”.

With `COc1cc([C@@H]2c3cc4c(cc3[C@@H](O[C@@H]3O[C@@H]5CO[C@@H](C)O[C@H]5[C@H](O)[C@H]3O)[C@H]3COC(=O)[C@H]23)OCO4)cc(OC)c1O` [ETOPOSIDE], the IC50 in the assay with A549 turned out to be 0.24 µM; in the assay on HCT-116 it was 1.25 µM; with K562, 1.79 µM; with MDA-MB-231, 7.35 µM; in the assay on SK-HEP1 it was 0.25 µM; with SNU-638 it was 0.56 µM.
